According to patent publication US10117866B2, “Promoting axon regeneration in the adult CNS through control of protein translation” (CHILDREN'S MEDICAL CENTER CORPORATION, priority 2008, dated 2018):
pIC50: −log10 of the molar value.

biological target: PTEN (Homo sapiens, UniProt P60484); assay: PTEN inhibition assay (malachite green phosphate release), IC50 determination; format: biochemical; conditions: not given
Protocol: PTEN inhibitors are evaluated in an inhibition assay conducted in half-volume 96 well plates in 25 ul total volume per well containing 2 mM dithiothreitol (DTT) and 0.1 mM Tris buffer, pH 8.0 and up to 3 ug total protein of PTEN. Small volumes of the test inhibitor candidates (stock concentrated solutions of 25 mM in DMSO) are mixed with the PTEN solution at room temperature for about 10 minutes and then substrate is added. The reaction mix is then incubated in 37° C. for 20 minutes. Subsequent to this a 100 ul aliquot of malachite green buffer (Upstate, Charlottesville, Va.) is added to develop the color in the dark at room temperature (this solution also stops the dephosphorylation reaction). A SpectraMax Plus spectrophotometric plate reader (Molecular Devices, Sunnyvale, Calif.) is used to measure the optical density at 650 nanometers. […]
To determine the dose response of potential PTEN inhibitors, doses of test compounds ranging from 1 nM to 250 uM (final reaction mix concentrations) are evaluated in the general PTEN inhibition assay (supra). […] Once the concentration range is determined, at which PTEN activity changes dramatically, two additional concentration data points within this range are added and the PTEN inhibition assay is then rerun for the second round. […]

PTEN, sequence (P60484 whole entry, species assumed): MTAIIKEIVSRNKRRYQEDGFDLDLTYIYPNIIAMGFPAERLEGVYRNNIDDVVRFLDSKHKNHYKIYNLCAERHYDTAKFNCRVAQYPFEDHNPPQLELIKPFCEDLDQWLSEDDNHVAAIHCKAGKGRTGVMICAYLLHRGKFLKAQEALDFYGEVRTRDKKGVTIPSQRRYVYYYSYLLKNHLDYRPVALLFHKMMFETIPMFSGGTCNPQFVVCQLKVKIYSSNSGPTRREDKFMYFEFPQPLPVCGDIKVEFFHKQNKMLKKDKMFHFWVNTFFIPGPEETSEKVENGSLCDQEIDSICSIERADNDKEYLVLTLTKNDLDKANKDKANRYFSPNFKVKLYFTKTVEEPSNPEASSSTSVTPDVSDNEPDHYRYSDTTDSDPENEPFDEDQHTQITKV

| pIC50 | Compound |
| --- | --- |
| 5.70 | CC(C)(C)C(=O)Nc1cnc2c(c1)C(=O)C(=O)c1cccnc1-2 |
| 6.52 | O=C(COc1ccccc1)Nc1cnc2c(c1)C(=O)C(=O)c1cccnc1-2 |

tested on: dorsal corticospinal tract (CST) axons; assay: Spinal injury (dorsal corticospinal tract transection) in rats, intrathecal or intravenous PTEN inhibitor; format: in vivo, Sprague Dawley rats; conditions: intrathecal or intravenous administration, rat spinal injury model
Excerpt: Methodology for this animal study was adapted from Nash et al (J. Neurosci (2002) 22:7111-7120), Luo et al (Molecular Pain (2005) 1:29), and Obata et al (J. Neurosci. (2004) 24:10211-22).
Adult Sprague Dawley rats ([…]) are trained and tested in a directed forepaw reaching (DFR) apparatus which measures grasping ability. The apparatus, which is described in detail by Nash et al., supra, is a box that consists of two compartments: a main compartment for housing the rats and a minor compartment for the food, separated by a PLEXIGLAS™ divider. The minor compartment is subdivided into slots of equal size, each holding a pellet of food. Between the slots and the PLEXIGLAS™ there is a gap. The apparatus is configured such that in order to retrieve a food pellet from a slot, a rat must extend a forelimb through a hole in the PLEXIGLAS™ divider, and grasp the pellet and lift it over the gap and out of the slot. If the rat merely rakes the food in the slot towards the hole in the PLEXIGLAS™, the food will drop from the slot into the gap and fall to the floor of the minor compartment. The floor of the minor compartment can be configured to allow a rat to retrieve food that drops or it can be lowered to prevent the rat from reaching dropped food. Prior to inducing spinal injury, the rats are food restricted, receiving ˜[…] body weight per day, before and throughout training and testing. Weight is monitored to ensure that rats are reduced to no less than 80% of their original body weight at any time. All rats are given shaping periods for 2-3 d in the box to allow them to learn the task while they become familiar with the testing situation. Animals are trained twice per day for 5 d and then tested twice per day for 5 d, and presurgical DFR data is collected. During the testing period, rats are given 5 min to complete the task and are allowed to make as many attempts as they want during this time period. Rats are required to return to at least 95% of their original weight to ensure that they are healthy before undergoing surgery.
Rats are randomly assigned to control or experimental groups. Sham control rats undergo surgical procedure without lesioning, and with or without placement of a mini osmotic pump (Alzet type 2001; Durect, Cupertino, Calif.). Lesioned control rats receive no treatment, tail vein injection with vehicle only treatment, insertion of a mini osmotic pump only treatment, or insertion of a mini osmotic pump with vehicle only treatment. After anesthesia with isoflurane, the rats are placed on an operating board in such a way as to bend the cervical spinal cord for maximum exposure. A laminectomy is performed exposing the dorsum of the spinal cord between C2 and C4. […]

| Compound | axonal regeneration after spinal injury |
| --- | --- |
| O.O.O.OO.OO.[K+].[OH-].[V].c1cnc2c(c1)ccc1cccnc12 [bpV(phen), potassium bisperoxo(1,10-phenanthroline)oxovanadate (V)] | can be promoted |
| O.O.O=C([O-])c1ccccn1.OO.OO.[K+].[K+].[OH-].[V] [bpV(pic), dipotassium bisperoxo(picolinato)oxovanadate (V)] | can be promoted |
| dipotassium bisperoxo(5-hydroxypyridine-2-carboxyl)oxovanadate (V) [bpV(HOpic)] | can be promoted |
| potassium bisperoxo(bipyridine)oxovanadate (V) [bpV(bipy)] | can be promoted |
